# Assay results reported in PubChem BioAssay (NCI).
#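 Where inhibition never reached the appropriate level, the endpoint shown equals the highest concentration tested. Otherwise, values were interpolated linearly from a five-concentration, 48-hour dose response in 96-well plates. The concentration for 50% growth inhibition is given as GI50. TGI denotes the concentration required for complete inhibition of growth.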
# Legend:
# Test in all cases: NCI tumour cell line growth inhibition, 48 h
# NCI-H522 lung = tested on: NCI-H522 lung
# CAKI-1 renal = tested on: CAKI-1 renal
# SNB-75 CNS = tested on: SNB-75 CNS
# T-47D breast = tested on: T-47D breast
# ACHN renal = tested on: ACHN renal
# SF-268 CNS = tested on: SF-268 CNS
# SK-MEL-5 melanoma = tested on: SK-MEL-5 melanoma
# KM12 colon = tested on: KM12 colon
# RPMI-8226 leukemia = tested on: RPMI-8226 leukemia
# LOX IMVI melanoma = tested on: LOX IMVI melanoma
# A498 renal = tested on: A498 renal
# TK-10 renal = tested on: TK-10 renal
# MCF7 breast = tested on: MCF7 breast
# UACC-257 melanoma = tested on: UACC-257 melanoma
# HCT-15 colon = tested on: HCT-15 colon
# RXF 393 renal = tested on: RXF 393 renal
# NCI-H226 lung = tested on: NCI-H226 lung
# M14 melanoma = tested on: M14 melanoma
# NCI-H460 lung = tested on: NCI-H460 lung
# MOLT-4 leukemia = tested on: MOLT-4 leukemia
# EKVX NSCLC = tested on: EKVX NSCLC
# BT-549 breast = tested on: BT-549 breast
# COLO 205 colon = tested on: COLO 205 colon
# SW-620 colon = tested on: SW-620 colon
# SN12C renal = tested on: SN12C renal
# HCC-2998 colon = tested on: HCC-2998 colon
# SK-MEL-2 melanoma = tested on: SK-MEL-2 melanoma
# MALME-3M melanoma = tested on: MALME-3M melanoma
# U251 CNS = tested on: U251 CNS
# OVCAR-3 ovarian = tested on: OVCAR-3 ovarian
# UO-31 renal = tested on: UO-31 renal
# NCI/ADR-RES ovarian = tested on: NCI/ADR-RES ovarian
# HL-60(TB) leukemia = tested on: HL-60(TB) leukemia
# HOP-92 NSCLC = tested on: HOP-92 NSCLC
# OVCAR-4 ovarian = tested on: OVCAR-4 ovarian
# HOP-62 NSCLC = tested on: HOP-62 NSCLC
# UACC-62 melanoma = tested on: UACC-62 melanoma
# SK-MEL-28 melanoma = tested on: SK-MEL-28 melanoma
# PC-3 prostate = tested on: PC-3 prostate
# OVCAR-8 ovarian = tested on: OVCAR-8 ovarian
# SF-539 CNS = tested on: SF-539 CNS
# NCI-H23 lung = tested on: NCI-H23 lung
# DU-145 prostate = tested on: DU-145 prostate
# SF-295 CNS = tested on: SF-295 CNS
# 786-0 renal = tested on: 786-0 renal
# HT29 colon = tested on: HT29 colon
# SNB-19 CNS = tested on: SNB-19 CNS
# MDA-MB-435 = tested on: MDA-MB-435
# OVCAR-5 ovarian = tested on: OVCAR-5 ovarian
# A549 NSCLC = tested on: A549 NSCLC
# SK-OV-3 ovarian = tested on: SK-OV-3 ovarian
# HCT-116 colon = tested on: HCT-116 colon
# MDA-MB-231 breast = tested on: MDA-MB-231 breast
# HS 578T breast = tested on: HS 578T breast
# SR leukemia = tested on: SR leukemia
compound,measurement,setting,value
O=S(=O)(Nc1ccc2ccccc2c1)N1CCCCC1,GI50,NCI-H522 lung,2.49 µM
same,TGI,NCI-H522 lung,8 µM
same,GI50,CAKI-1 renal,1.81 µM
same,TGI,CAKI-1 renal,7.97 µM
same,GI50,SNB-75 CNS,2.38 µM
same,TGI,SNB-75 CNS,20.7 µM
same,GI50,T-47D breast,11 µM
same,TGI,T-47D breast,45.8 µM
same,GI50,ACHN renal,18.1 µM
same,TGI,ACHN renal,60.9 µM
same,GI50,SF-268 CNS,11.7 µM
same,TGI,SF-268 CNS,28.8 µM
same,GI50,SK-MEL-5 melanoma,8.33 µM
same,TGI,SK-MEL-5 melanoma,21 µM
same,GI50,KM12 colon,4.21 µM
same,TGI,KM12 colon,17.2 µM
same,GI50,RPMI-8226 leukemia,17.8 µM
same,TGI,RPMI-8226 leukemia,75.5 µM
same,GI50,LOX IMVI melanoma,9.97 µM
same,TGI,LOX IMVI melanoma,24.6 µM
same,GI50,A498 renal,3.33 µM
same,TGI,A498 renal,15.7 µM
same,GI50,TK-10 renal,12.7 µM
same,TGI,TK-10 renal,32.1 µM
same,GI50,MCF7 breast,9.55 µM
same,TGI,MCF7 breast,88.9 µM
same,GI50,UACC-257 melanoma,10.1 µM
same,TGI,UACC-257 melanoma,24 µM
same,GI50,HCT-15 colon,8 µM
same,TGI,HCT-15 colon,35.2 µM
same,GI50,RXF 393 renal,5.58 µM
same,TGI,RXF 393 renal,19.7 µM
same,GI50,NCI-H226 lung,14.8 µM
same,TGI,NCI-H226 lung,33.2 µM
same,GI50,M14 melanoma,8.94 µM
same,TGI,M14 melanoma,25.5 µM
same,GI50,NCI-H460 lung,10.1 µM
same,TGI,NCI-H460 lung,23.3 µM
same,GI50,MOLT-4 leukemia,7.21 µM
same,TGI,MOLT-4 leukemia,58 µM
same,GI50,EKVX NSCLC,7.99 µM
same,TGI,EKVX NSCLC,41 µM
same,GI50,BT-549 breast,13.8 µM
same,TGI,BT-549 breast,28.4 µM
same,GI50,COLO 205 colon,9.36 µM
same,TGI,COLO 205 colon,25.3 µM
same,GI50,SW-620 colon,5.7 µM
same,TGI,SW-620 colon,20.7 µM
same,GI50,SN12C renal,13.2 µM
same,TGI,SN12C renal,29.1 µM
same,GI50,HCC-2998 colon,8.35 µM
same,TGI,HCC-2998 colon,22.2 µM
same,GI50,SK-MEL-2 melanoma,9.85 µM
same,TGI,SK-MEL-2 melanoma,23.6 µM
same,GI50,MALME-3M melanoma,14.5 µM
same,TGI,MALME-3M melanoma,34 µM
same,GI50,U251 CNS,12 µM
same,TGI,U251 CNS,26.7 µM
same,GI50,OVCAR-3 ovarian,4.71 µM
same,TGI,OVCAR-3 ovarian,16.7 µM
same,GI50,UO-31 renal,6.87 µM
same,TGI,UO-31 renal,22.9 µM
same,GI50,NCI/ADR-RES ovarian,4.09 µM
same,TGI,NCI/ADR-RES ovarian,22.2 µM
same,GI50,HL-60(TB) leukemia,9.31 µM
same,TGI,HL-60(TB) leukemia,43.2 µM
same,GI50,HOP-92 NSCLC,5.42 µM
same,TGI,HOP-92 NSCLC,20.4 µM
same,GI50,OVCAR-4 ovarian,15.6 µM
same,TGI,OVCAR-4 ovarian,50.1 µM
same,GI50,HOP-62 NSCLC,3.93 µM
same,TGI,HOP-62 NSCLC,18.7 µM
same,GI50,UACC-62 melanoma,8.7 µM
same,TGI,UACC-62 melanoma,22.2 µM
same,GI50,SK-MEL-28 melanoma,12 µM
same,TGI,SK-MEL-28 melanoma,28 µM
same,GI50,PC-3 prostate,13.1 µM
same,TGI,PC-3 prostate,41.5 µM
same,GI50,OVCAR-8 ovarian,19.6 µM
same,TGI,OVCAR-8 ovarian,57 µM
same,GI50,SF-539 CNS,10.5 µM
same,TGI,SF-539 CNS,24.9 µM
same,GI50,NCI-H23 lung,12.2 µM
same,TGI,NCI-H23 lung,34 µM
same,GI50,DU-145 prostate,12.1 µM
same,TGI,DU-145 prostate,30.3 µM
same,GI50,SF-295 CNS,2.4 µM
same,TGI,SF-295 CNS,15.2 µM
same,GI50,786-0 renal,13.6 µM
same,TGI,786-0 renal,30 µM
same,GI50,HT29 colon,4.87 µM
same,TGI,HT29 colon,18.9 µM
same,GI50,SNB-19 CNS,18.4 µM
same,TGI,SNB-19 CNS,> 100 µM
same,GI50,MDA-MB-435,1.91 µM
same,TGI,MDA-MB-435,10.8 µM
same,GI50,OVCAR-5 ovarian,19.5 µM
same,TGI,OVCAR-5 ovarian,43.7 µM
same,GI50,A549 NSCLC,11.9 µM
same,TGI,A549 NSCLC,38.1 µM
same,GI50,SK-OV-3 ovarian,8.93 µM
same,TGI,SK-OV-3 ovarian,37.4 µM
same,GI50,HCT-116 colon,9.94 µM
same,TGI,HCT-116 colon,23.4 µM
same,GI50,MDA-MB-231 breast,10.1 µM
same,TGI,MDA-MB-231 breast,25 µM
same,GI50,HS 578T breast,11.9 µM
same,TGI,HS 578T breast,33.6 µM
same,GI50,SR leukemia,4.15 µM
same,TGI,SR leukemia,44.6 µM
